Values quoted from earlier work, collected in patent publication US12683165B2, “Positive electrode additive for lithium secondary battery, positive electrode active material comprising same, positive electrode, and lithium secondary battery” (LG ENERGY SOLUTION, LTD., priority 2021, dated 2026).

Conditions: ether-based or carbonate-based solvent of a lithium-sulfur secondary battery electrolyte solution

dissolution in electrolyte solution solvent: tends to be dissolved
Structure (SMILES): O=c1[nH]c(=O)c2c3ccc4cccc5c6cccc7ccc(c12)c(c76)c3c45 [BPI, benzo[ghi]peryleneimide]
